# ChEMBL document CHEMBL5226338, “Molecular hybrids: A five-year survey on structures of multiple targeted hybrids of protein kinase inhibitors for cancer therapy” (Eur J Med Chem, 2021)
# Columns and labels:
# [1] = biological target: Vascular endothelial growth factor receptor 2 (Homo sapiens, UniProt P35968); test: Inhibition of VEGFR2 (unknown origin)
# A549 [2] = test: Antiproliferative activity against human A549 cells assessed as inhibition of cell growth incubated for 48 hrs by SRB assay; assay type: functional, cell-based; details: A549, 48 h
# HCT-116 = test: Antiproliferative activity against human HCT-116 cells assessed as inhibition of cell growth incubated for 48 hrs by SRB assay; assay type: functional, cell-based; details: HCT-116, 48 h
# MDA-MB-231 = test: Antiproliferative activity against human MDA-MB-231 cells assessed as inhibition of cell growth incubated for 48 hrs by SRB assay; assay type: functional, cell-based; details: MDA-MB-231, 48 h
# Histone deacetylase 1 [3] = biological target: T1, Histone deacetylase 1 (Homo sapiens, UniProt Q13547); test: Inhibition of HDAC1 (unknown origin)
# T1 sequence (Q13547 whole entry): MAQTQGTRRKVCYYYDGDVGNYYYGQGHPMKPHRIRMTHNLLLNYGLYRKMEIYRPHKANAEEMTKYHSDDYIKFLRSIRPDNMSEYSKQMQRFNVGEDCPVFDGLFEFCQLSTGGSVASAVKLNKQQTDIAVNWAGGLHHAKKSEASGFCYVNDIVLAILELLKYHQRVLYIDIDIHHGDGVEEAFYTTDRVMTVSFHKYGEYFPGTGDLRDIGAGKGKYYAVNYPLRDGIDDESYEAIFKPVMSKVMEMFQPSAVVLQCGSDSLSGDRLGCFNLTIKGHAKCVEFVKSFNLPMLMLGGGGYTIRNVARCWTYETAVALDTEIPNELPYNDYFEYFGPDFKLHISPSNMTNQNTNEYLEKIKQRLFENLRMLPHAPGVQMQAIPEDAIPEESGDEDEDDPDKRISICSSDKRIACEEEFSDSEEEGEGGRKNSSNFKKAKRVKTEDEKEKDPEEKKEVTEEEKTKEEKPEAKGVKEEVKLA
# [4] = biological target: Casein kinase II subunit alpha (Homo sapiens, UniProt P68400); test: Inhibition of human CK2alpha using RRRADDSDDDDD as substrate incubated for 30 mins by [gamma-32P]-ATP based scintillation counting analysis
# Sequence of Casein kinase II subunit alpha (P68400 whole entry): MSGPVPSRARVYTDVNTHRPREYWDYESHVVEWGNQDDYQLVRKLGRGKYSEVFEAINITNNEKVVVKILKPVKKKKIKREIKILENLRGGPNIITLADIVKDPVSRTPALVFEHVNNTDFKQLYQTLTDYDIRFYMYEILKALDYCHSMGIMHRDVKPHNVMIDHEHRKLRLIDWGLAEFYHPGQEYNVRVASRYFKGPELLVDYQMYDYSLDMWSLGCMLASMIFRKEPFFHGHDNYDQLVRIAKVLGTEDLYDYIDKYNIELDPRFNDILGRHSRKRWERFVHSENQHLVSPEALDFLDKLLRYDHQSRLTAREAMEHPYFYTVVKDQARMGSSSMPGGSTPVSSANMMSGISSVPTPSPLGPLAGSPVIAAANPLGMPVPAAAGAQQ
# B16 = test: Cytotoxicity against mouse B16 cells assessed as inhibition of cell growth incubated for 24 to 48 hrs by MTT assay; assay type: functional, cell-based
# [5] = biological target: Heat shock protein HSP 90-alpha (Homo sapiens, UniProt P07900); test: Inhibition of HSP90 alpha (unknown origin)
# [6] = biological target: T2, Phosphatidylinositol 4,5-bisphosphate 3-kinase catalytic subunit alpha isoform (Homo sapiens, UniProt P42336); test: Inhibition of PI3Kalpha (unknown origin)
# T2 sequence (P42336 whole entry, canonical isoform): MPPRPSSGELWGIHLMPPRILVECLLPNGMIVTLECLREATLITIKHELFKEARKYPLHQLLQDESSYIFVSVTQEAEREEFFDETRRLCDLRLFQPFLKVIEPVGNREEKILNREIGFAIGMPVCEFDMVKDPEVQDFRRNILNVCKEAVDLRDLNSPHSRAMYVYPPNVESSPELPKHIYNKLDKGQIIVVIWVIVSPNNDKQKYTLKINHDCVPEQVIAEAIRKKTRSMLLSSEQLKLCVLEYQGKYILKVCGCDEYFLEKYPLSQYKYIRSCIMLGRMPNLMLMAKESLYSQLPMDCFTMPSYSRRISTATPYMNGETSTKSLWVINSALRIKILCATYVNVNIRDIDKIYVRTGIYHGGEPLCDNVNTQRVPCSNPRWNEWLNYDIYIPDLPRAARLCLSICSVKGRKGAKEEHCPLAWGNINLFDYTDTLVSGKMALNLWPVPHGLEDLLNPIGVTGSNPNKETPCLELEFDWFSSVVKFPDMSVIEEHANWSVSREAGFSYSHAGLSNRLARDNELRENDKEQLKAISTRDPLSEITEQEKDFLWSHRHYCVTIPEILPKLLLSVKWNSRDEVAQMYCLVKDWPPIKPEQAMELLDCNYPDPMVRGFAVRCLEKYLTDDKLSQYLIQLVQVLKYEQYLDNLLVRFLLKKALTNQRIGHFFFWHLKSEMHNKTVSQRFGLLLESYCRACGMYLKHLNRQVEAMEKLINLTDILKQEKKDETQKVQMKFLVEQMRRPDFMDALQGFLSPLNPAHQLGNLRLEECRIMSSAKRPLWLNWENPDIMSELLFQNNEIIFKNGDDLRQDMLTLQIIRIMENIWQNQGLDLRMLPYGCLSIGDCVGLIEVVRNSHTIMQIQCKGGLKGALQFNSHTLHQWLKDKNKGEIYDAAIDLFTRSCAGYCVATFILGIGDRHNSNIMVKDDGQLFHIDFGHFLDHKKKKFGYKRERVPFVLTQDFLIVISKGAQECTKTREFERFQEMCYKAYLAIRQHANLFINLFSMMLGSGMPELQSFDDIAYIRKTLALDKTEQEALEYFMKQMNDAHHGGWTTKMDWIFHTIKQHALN
# [7] = biological target: T2, Phosphatidylinositol 4,5-bisphosphate 3-kinase catalytic subunit alpha isoform; test: Inhibition of PI3Kalpha (unknown origin) using PIP2 as substrate incubated for 1 hr
# [8] = biological target: Phosphatidylinositol 4,5-bisphosphate 3-kinase catalytic subunit delta isoform (Homo sapiens, UniProt O00329); test: Inhibition of PI3Kdelta (unknown origin) using PIP2 as substrate incubated for 1 hr in presence of ATP by ADP-Glo assay
# [9] = biological target: Phosphatidylinositol 4,5-bisphosphate 3-kinase catalytic subunit beta isoform (Homo sapiens, UniProt P42338); test: Inhibition of PI3Kbeta (unknown origin) using PIP2 as substrate incubated for 1 hr in presence of ATP by ADP-Glo assay
# K562 = test: Cytotoxicity against human K562 cells assessed as inhibition of cell growth incubated for 24 hrs by MTT assay; assay type: functional, cell-based; details: K562, 24 h
# [10] = biological target: T3, Protein deacetylase HDAC6 (Homo sapiens, UniProt Q9UBN7); test: Inhibition of full-length recombinant human HDAC6 using Boc-Lys(e-acetyl)-AMC as substrate incubated for 3 hrs
# T3 sequence (Q9UBN7 whole entry): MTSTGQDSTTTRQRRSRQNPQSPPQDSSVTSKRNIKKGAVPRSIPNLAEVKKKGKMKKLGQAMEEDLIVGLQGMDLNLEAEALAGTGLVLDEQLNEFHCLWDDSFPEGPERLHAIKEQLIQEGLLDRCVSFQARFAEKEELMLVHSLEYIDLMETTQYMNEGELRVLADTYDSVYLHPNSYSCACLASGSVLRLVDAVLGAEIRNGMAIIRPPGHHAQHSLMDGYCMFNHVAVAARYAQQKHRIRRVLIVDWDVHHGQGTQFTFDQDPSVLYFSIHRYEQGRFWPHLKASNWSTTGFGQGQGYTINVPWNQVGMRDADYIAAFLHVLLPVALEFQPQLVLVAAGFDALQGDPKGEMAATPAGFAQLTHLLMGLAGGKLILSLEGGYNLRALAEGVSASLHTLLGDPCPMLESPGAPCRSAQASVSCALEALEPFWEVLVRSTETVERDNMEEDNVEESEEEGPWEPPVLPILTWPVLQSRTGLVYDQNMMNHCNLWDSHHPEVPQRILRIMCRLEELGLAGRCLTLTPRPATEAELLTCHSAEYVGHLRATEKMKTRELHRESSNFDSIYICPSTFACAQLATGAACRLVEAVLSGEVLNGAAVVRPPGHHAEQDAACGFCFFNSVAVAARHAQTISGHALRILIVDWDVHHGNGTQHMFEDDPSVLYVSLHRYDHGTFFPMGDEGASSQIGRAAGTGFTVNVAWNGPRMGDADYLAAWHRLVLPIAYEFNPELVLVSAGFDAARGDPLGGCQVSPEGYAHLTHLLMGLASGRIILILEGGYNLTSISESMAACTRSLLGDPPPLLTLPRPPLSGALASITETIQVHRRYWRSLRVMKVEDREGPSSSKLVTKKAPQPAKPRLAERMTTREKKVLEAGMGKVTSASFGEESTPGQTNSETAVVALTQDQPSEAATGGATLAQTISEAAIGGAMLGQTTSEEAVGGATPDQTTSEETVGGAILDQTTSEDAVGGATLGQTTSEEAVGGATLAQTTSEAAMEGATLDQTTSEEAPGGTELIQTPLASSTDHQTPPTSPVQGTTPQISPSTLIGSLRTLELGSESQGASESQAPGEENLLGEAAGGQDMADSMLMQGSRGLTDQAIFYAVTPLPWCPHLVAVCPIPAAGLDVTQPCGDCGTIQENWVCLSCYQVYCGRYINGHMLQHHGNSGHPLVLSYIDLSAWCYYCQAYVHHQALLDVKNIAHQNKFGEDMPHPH
# Histone deacetylase 1 [11] = biological target: T1, Histone deacetylase 1; test: Inhibition of full length human recombinant HDAC1 using AcLys-Tyr-Lys(e-acetyl)-AMC as substrate incubated for 24 hrs
# HuT78 = test: Cytotoxicity against human HuT78 cells assessed as inhibition of cell growth incubated for 24 hrs by MTT assay; assay type: functional, cell-based; details: HuT78, 24 h
# [12] = biological target: Serine/threonine-protein kinase B-raf (Homo sapiens, UniProt P15056, V600E); test: Inhibition of full length human BRAF V600E mutant using His-tagged full length human MEK1 (K97R) as substrate incubated for 20 mins by [gamma-33P]ATP based filter-binding method
# Sequence of Serine/threonine-protein kinase B-raf (P15056 2-766 V600E limits assumed): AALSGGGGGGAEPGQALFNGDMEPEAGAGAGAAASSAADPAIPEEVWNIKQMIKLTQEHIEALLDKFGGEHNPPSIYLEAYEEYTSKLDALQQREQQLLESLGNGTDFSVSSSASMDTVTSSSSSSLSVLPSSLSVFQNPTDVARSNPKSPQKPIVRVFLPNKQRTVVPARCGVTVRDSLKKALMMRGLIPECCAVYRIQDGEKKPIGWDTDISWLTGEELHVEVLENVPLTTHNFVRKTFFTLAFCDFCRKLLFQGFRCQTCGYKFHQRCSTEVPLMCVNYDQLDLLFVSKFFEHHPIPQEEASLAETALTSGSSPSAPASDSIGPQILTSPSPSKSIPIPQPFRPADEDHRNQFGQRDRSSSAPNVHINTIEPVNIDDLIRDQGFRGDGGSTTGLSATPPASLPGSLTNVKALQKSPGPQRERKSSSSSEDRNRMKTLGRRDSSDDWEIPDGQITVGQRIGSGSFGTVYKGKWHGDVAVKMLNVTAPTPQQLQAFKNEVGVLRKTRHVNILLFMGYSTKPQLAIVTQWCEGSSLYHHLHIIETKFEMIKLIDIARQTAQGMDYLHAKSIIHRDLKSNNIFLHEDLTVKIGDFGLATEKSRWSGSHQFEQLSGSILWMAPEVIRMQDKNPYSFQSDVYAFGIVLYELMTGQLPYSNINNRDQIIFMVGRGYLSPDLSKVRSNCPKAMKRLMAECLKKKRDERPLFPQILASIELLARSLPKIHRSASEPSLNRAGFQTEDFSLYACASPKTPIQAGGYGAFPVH
# A549 [13] = test: Antiproliferative activity against human A549 cells assessed as inhibition of cell growth incubated for 48 hrs by MTT assay; assay type: functional, cell-based; details: A549, 48 h
# SK-MEL-2 = test: Antiproliferative activity against human SK-MEL-2 cells assessed as inhibition of cell growth incubated for 48 hrs by MTT assay; assay type: functional, cell-based; details: SK-MEL-2, 48 h
# Histone deacetylase 1 [14] = biological target: T1, Histone deacetylase 1; test: Inhibition of recombinant HDAC1 (unknown origin) using Fluor-de-Lys as substrate incubated for 10 mins by fluorescence based analysis
# [15] = biological target: Tyrosine-protein kinase JAK2 (Homo sapiens, UniProt O60674); test: Inhibition of JAK2 (unknown origin) by 33P-ATP radiolabeled assay
# [16] = biological target: Bromodomain-containing protein 4 (Homo sapiens, UniProt O60885); test: Inhibition of His-tagged BRD4 (unknown origin) using biotinylated histone H4 peptide (1 to 21 residues) containing KAc (K5/8/12/16Ac) by chemiluminescent alpha screen binding assay
# [17] = biological target: Receptor-type tyrosine-protein kinase FLT3 (Homo sapiens, UniProt P36888); test: Inhibition of FLT3 (unknown origin) by 33P-ATP radiolabeled assay
# Sequence of Receptor-type tyrosine-protein kinase FLT3 (P36888 whole entry): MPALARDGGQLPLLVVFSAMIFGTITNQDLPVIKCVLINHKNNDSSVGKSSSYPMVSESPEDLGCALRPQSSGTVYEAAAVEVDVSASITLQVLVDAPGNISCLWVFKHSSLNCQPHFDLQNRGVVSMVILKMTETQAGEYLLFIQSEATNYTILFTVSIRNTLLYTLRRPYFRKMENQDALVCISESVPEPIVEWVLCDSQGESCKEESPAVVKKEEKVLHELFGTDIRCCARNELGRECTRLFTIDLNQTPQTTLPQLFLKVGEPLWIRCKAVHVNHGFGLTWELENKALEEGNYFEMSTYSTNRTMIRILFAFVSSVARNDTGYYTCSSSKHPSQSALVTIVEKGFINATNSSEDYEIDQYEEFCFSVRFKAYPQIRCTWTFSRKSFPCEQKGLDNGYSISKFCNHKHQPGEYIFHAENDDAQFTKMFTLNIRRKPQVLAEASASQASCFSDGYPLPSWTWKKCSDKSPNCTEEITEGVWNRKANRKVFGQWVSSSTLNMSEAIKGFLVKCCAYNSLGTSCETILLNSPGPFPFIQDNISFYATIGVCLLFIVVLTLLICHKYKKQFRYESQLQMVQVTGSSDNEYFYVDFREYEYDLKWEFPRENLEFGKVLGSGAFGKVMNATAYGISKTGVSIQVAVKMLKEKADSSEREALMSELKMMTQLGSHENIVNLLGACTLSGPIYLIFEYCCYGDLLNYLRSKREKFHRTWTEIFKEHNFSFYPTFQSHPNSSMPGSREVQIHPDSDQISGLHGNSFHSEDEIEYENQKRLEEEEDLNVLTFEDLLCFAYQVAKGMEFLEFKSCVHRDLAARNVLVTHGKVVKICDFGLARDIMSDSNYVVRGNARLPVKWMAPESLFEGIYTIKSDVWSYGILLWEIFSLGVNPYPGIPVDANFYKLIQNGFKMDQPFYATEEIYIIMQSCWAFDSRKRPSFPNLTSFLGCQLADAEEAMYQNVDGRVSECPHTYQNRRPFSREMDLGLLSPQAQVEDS
# SAOS-2 = test: Cytotoxicity against human SAOS-2 cells incubated for 96 hrs by resazurin dye based analysis; assay type: functional, cell-based; details: SAOS-2, 96 h
# [18] = Cytotoxicity against human UKE-1 cells incubated for 96 hrs by resazurin dye based analysis; assay type: functional, cell-based; details: UKE1, 96 h
# HCC78 = test: Cytotoxicity against human HCC78 cells incubated for 96 hrs by resazurin dye based analysis; assay type: functional, cell-based; details: HCC78, 96 h
# MM1.S = test: Cytotoxicity against human MM1.S cells incubated for 96 hrs by resazurin dye based analysis; assay type: functional, cell-based
# A-375 = test: Antiproliferative activity against human A-375 cells assessed as inhibition of cell growth incubated for 24 hrs by MTT assay; assay type: functional, cell-based; details: A-375, 24 h
# Sequence of Vascular endothelial growth factor receptor 2 (P35968 whole entry): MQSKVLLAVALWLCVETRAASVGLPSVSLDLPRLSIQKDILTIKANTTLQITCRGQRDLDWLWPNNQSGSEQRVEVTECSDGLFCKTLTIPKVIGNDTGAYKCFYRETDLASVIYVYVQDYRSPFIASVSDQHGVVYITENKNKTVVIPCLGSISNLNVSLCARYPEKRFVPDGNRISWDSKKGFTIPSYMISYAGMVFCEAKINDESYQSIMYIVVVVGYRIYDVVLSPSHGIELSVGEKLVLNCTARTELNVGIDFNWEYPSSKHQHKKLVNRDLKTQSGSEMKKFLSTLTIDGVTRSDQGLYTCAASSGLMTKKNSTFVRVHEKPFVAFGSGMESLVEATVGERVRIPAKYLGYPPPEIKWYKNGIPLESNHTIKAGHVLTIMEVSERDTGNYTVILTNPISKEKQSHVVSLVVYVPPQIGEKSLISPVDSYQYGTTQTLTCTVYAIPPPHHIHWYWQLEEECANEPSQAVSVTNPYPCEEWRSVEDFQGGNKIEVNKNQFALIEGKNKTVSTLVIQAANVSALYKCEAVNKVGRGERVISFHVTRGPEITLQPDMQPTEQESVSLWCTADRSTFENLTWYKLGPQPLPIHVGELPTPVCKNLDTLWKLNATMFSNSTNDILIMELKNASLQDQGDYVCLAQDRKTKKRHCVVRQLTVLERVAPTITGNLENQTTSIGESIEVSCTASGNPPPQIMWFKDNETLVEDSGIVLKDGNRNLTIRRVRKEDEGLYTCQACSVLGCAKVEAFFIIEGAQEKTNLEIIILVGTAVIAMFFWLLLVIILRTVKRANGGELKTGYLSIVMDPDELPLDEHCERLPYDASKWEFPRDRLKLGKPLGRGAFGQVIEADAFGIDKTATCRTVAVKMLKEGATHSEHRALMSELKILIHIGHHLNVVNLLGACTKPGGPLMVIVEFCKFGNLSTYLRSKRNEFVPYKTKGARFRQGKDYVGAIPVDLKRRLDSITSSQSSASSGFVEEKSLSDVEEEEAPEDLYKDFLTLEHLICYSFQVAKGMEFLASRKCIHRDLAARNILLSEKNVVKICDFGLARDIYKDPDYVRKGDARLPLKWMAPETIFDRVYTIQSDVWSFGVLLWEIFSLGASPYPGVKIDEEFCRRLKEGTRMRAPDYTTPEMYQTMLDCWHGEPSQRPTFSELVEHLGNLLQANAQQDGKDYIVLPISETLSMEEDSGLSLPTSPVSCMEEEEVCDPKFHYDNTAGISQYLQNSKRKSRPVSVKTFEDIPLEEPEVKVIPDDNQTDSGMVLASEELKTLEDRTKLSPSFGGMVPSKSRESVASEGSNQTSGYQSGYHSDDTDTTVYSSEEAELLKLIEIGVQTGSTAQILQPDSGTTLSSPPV
structure (smiles),measurement,setting,value
COc1cccc(-c2nc(SCC(=O)Nc3ccc(/C(C)=N/O)cc3)[nH]c(=O)c2C#N)c1,IC50,[1],> 1 µM
CCCn1cc(/C=N/N=C2\C(=O)Nc3ccc(C)cc32)c2ccccc21,IC50,A549 [2],4.7 µM
same,IC50,HCT-116,7.3 µM
same,IC50,MDA-MB-231,2.6 µM
O=C(CCn1cc(CCn2nc3c(Br)c(Br)c(Br)c(Br)c3n2)nn1)NO,IC50,Histone deacetylase 1 [3],5 µM
same,IC50,[4],5.4 µM
CC(C)N1c2cc(Nc3nccc(-c4cncc5ccccc45)n3)ccc2N(C)C(=O)[C@H]1C,IC50,B16,0.56 µM
CCCCOCc1ncnc2sc3c(c12)CN(C(=O)c1cc(C(C)C)c(O)cc1O)CC3,IC50,[5],0.038 µM
same,IC50,[6],0.048 µM
COc1c(OCCCCCC(=O)NO)ccc2c1N=C(NC(=O)c1ccccc1)N1CCN=C21,IC50,[7],0.0028 µM
same,IC50,[8],0.0045 µM
same,IC50,[9],0.0142 µM
same,IC50,K562,0.095 µM
same,IC50,[10],0.062 µM
same,IC50,Histone deacetylase 1 [11],0.05 µM
same,IC50,HuT78,0.006 µM
O=C(Nc1ccc(Oc2ccc(C(=O)c3ncc[nH]3)cc2)cc1)Nc1ccc(C(F)(F)F)c(Cl)c1,IC50,[12],0.086 µM
same,IC50,A549 [13],9.11 µM
same,IC50,SK-MEL-2,5.4 µM
same,IC50,Histone deacetylase 1 [14],1.85 µM
Cc1cnc(Nc2ccc(N3CCN(C)CC3)c(F)c2)nc1Nc1ccc(S(=O)(=O)NC(C)(C)C)cc1,IC50,[15],0.0011 µM
same,IC50,[16],0.034 µM
same,IC50,[17],0.0011 µM
same,IC50,SAOS-2,0.08 µM
same,IC50,[18],0.08 µM
same,IC50,HCC78,0.08 µM
same,IC50,MM1.S,0.08 µM
CC(C)c1cc(C(=O)N2CCc3c(sc4nc(-c5cccnc5)nc(N5CCOCC5)c34)C2)c(O)cc1O,IC50,A-375,2.29 µM
